Literature values in patent EP0076676B1, “Process for using endorphins as antitumour agents” (TNI PHARMACEUTICALS, INC., priority 1981, dated 1986).

Tested on: phenylalanyl-t RNA synthetase
Conditions: observed by Laidow et al, J.B.C. 255 (1980)

beta-endorphin
inhibition of phenylalanyl-t RNA synthetase: inhibit
